From patent US6355799B1, “Substituted benzene compounds, process for their preparation, and herbicidal and defoliant compositions containing them” (ISK Americas Incorporated, priority 1997, dated 2002)

Assays:
Type in all cases: in vivo
[1] = tested on: field corn (Zea mays L., var. Dekalb 535, CORN); assay: Pre-emerge test, crop safety; conditions: pre-emerge, 14 days after application, rating scale 0-100
In short: (§1)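 Compounds in acetone were track-sprayed at 15-1000 g ai/ha (187 l/ha) on sandy loam pots: pre-emerge one day after seeding, post-emerge at 2-3 leaf stage with 0.25% v/v non-ionic surfactant. Phytotoxicity was rated 14 days later on a 0 (no damage) to 100 (complete death) scale.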

[2] = tested on: upland rice (Oryza sp., var. Tebonnet, RICE); assay: Pre-emerge test, crop safety; conditions: pre-emerge, 14 days after application, rating scale 0-100
In short: as §1

[3] = tested on: johnsongrass (Sorghum halepense, SORHA); assay: Pre-emerge test, greenhouse herbicide activity screening; conditions: pre-emerge, 14 days after application, rating scale 0-100
In short: (§2)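 Herbicidal damage is scored 0 (none) to 100 (complete plant death) two weeks after a simulated field spray. Rates span 15–1000 g ai/ha, delivered in acetone at 187 l/ha. For post-emergence treatments, plants have 2–3 leaves and the spray carries 0.25% v/v non-ionic surfactant.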

[4] = tested on: green foxtail (Setaria viridis, SETVI); assay: as above; conditions: pre-emerge, 14 days after application, rating scale 0-100
In short: as §2

[5] = tested on: lambsquarters (Chenopodium album, CHEAL); assay: as above; conditions: pre-emerge, 14 days after application, rating scale 0-100
In short: as §2

[6] = tested on: common ragweed (Ambrosia artemisizfolia L., AMBEL); assay: as above; conditions: pre-emerge, 14 days after application, rating scale 0-100
In short: as §2

[7] = tested on: ivyleaf morningglory (Ipomoea hederacea, IPOHE); assay: as above; conditions: pre-emerge, 14 days after application, rating scale 0-100
In short: as §2

[8] = tested on: barnyardgrass (Echinochloa crus-galli, ECHCG); assay: as above; conditions: pre-emerge, 14 days after application, rating scale 0-100
In short: as §2

[9] = tested on: large crabgrass (Digitaria sanguinalis, DIGSA); assay: as above; conditions: pre-emerge, 14 days after application, rating scale 0-100
In short: as §2

[10] = tested on: velvetleaf (Abutilon theophrasti, ABUTH); assay: as above; conditions: pre-emerge, 14 days after application, rating scale 0-100
In short: as §2

[11] = tested on: sicklepod (Cassia obtusifolia, CASOB); assay: as above; conditions: pre-emerge, 14 days after application, rating scale 0-100
In short: as §2

[12] = tested on: field corn (Zea mays L., var. Dekalb 535, CORN); assay: Post-emerge test, crop safety; conditions: post-emerge, 14 days after application, rating scale 0-100
In short: as §2

[13] = tested on: upland rice (Oryza sp., var. Tebonnet, RICE); assay: Post-emerge test, crop safety; conditions: post-emerge, 14 days after application, rating scale 0-100
In short: as §2

[14] = tested on: redroot pigweed (Amaranthus retroflexus, AMARE); assay: Pre-emerge test, greenhouse herbicide activity screening; conditions: pre-emerge, 14 days after application, rating scale 0-100
In short: (§3)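 Rating: 0–100 visual injury, 14 DAA. Application: acetone, 187 l/ha, 15–1000 g ai/ha, flat-fan track sprayer with nozzle 40–45 cm above soil or canopy. Post-emerge runs used 0.25% v/v surfactant on 2–3 leaf plants.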

[15] = tested on: redroot pigweed (Amaranthus retroflexus, AMARE); assay: Post-emerge test, greenhouse herbicide activity screening; conditions: post-emerge, 14 days after application
In short: as §3

[16] = tested on: green foxtail (Setaria viridis, SETVI); assay: as above; conditions: post-emerge, 14 days after application, rating scale 0-100
In short: as §3

[17] = tested on: lambsquarters (Chenopodium album, CHEAL); assay: as above; conditions: post-emerge, 14 days after application, rating scale 0-100
In short: as §3

[18] = tested on: common ragweed (Ambrosia artemisizfolia L., AMBEL); assay: as above; conditions: post-emerge, 14 days after application, rating scale 0-100
In short: as §3

[19] = tested on: ivyleaf morningglory (Ipomoea hederacea, IPOHE); assay: as above; conditions: post-emerge, 14 days after application, rating scale 0-100
In short: as §3

[20] = tested on: barnyardgrass (Echinochloa crus-galli, ECHCG); assay: as above; conditions: post-emerge, 14 days after application, rating scale 0-100
In short: as §3

[21] = tested on: large crabgrass (Digitaria sanguinalis, DIGSA); assay: as above; conditions: post-emerge, 14 days after application, rating scale 0-100
In short: as §3

[22] = tested on: velvetleaf (Abutilon theophrasti, ABUTH); assay: as above; conditions: post-emerge, 14 days after application, rating scale 0-100
In short: as §3

[23] = tested on: sicklepod (Cassia obtusifolia, CASOB); assay: as above; conditions: post-emerge, 14 days after application, rating scale 0-100
In short: as §3

CCOc1c(Cl)cc(F)c(-n2c(=O)cc(C(F)(F)F)n(C)c2=O)c1Cl [14-62]
phytotoxicity rating CORN ([1]; 63 g ai/ha): 0
phytotoxicity rating CORN ([1]; 250 g ai/ha): 5
phytotoxicity rating RICE ([2]; 63 g ai/ha): 0
phytotoxicity rating RICE ([2]; 250 g ai/ha): 15
phytotoxicity rating SORHA ([3]; 63 g ai/ha): 0
phytotoxicity rating SORHA ([3]; 250 g ai/ha): 60
phytotoxicity rating SETVI ([4]; 63 g ai/ha): 0
phytotoxicity rating SETVI ([4]; 250 g ai/ha): 60
phytotoxicity rating CHEAL ([5]; 63 g ai/ha): 20
phytotoxicity rating CHEAL ([5]; 250 g ai/ha): 80
phytotoxicity rating AMBEL ([6]; 63 g ai/ha): 0
phytotoxicity rating AMBEL ([6]; 250 g ai/ha): 30
phytotoxicity rating IPOHE ([7]; 63 g ai/ha): 0
phytotoxicity rating IPOHE ([7]; 250 g ai/ha): 0
phytotoxicity rating ECHCG ([8]; 63 g ai/ha): 0
phytotoxicity rating ECHCG ([8]; 250 g ai/ha): 20
phytotoxicity rating DIGSA ([9]; 63 g ai/ha): 0
phytotoxicity rating DIGSA ([9]; 250 g ai/ha): 50
phytotoxicity rating ABUTH ([10]; 63 g ai/ha): 15
phytotoxicity rating ABUTH ([10]; 250 g ai/ha): 95
phytotoxicity rating CASOB ([11]; 63 g ai/ha): 0
phytotoxicity rating CASOB ([11]; 250 g ai/ha): 0
Post-emerge Herbicidal Activity CORN (crop damage rating) ([12]; 63 g ai/ha): 5
Post-emerge Herbicidal Activity CORN (crop damage rating) ([12]; 250 g ai/ha): 5
Post-emerge Herbicidal Activity RICE (crop damage rating) ([13]; 63 g ai/ha): 0
Post-emerge Herbicidal Activity RICE (crop damage rating) ([13]; 250 g ai/ha): 5
phytotoxicity rating AMARE ([14]; 63 g ai/ha): 40
phytotoxicity rating AMARE ([14]; 250 g ai/ha): 100
Post-emerge Herbicidal Activity AMARE (phytotoxicity rating) ([15]; 63 g ai/ha, rating scale 0-100 (0 no damage, 100 complete death)): 30
Post-emerge Herbicidal Activity AMARE (phytotoxicity rating) ([15]; 250 g ai/ha, rating scale 0-100): 50
Post-emerge Herbicidal Activity SETVI (phytotoxicity rating) ([16]; 63 g ai/ha): 0
Post-emerge Herbicidal Activity SETVI (phytotoxicity rating) ([16]; 250 g ai/ha): 0
Post-emerge Herbicidal Activity CHEAL (phytotoxicity rating) ([17]; 63 g ai/ha): 10
Post-emerge Herbicidal Activity CHEAL (phytotoxicity rating) ([17]; 250 g ai/ha): 20
Post-emerge Herbicidal Activity AMBEL (phytotoxicity rating) ([18]; 63 g ai/ha): 40
Post-emerge Herbicidal Activity AMBEL (phytotoxicity rating) ([18]; 250 g ai/ha): 30
Post-emerge Herbicidal Activity IPOHE (phytotoxicity rating) ([19]; 63 g ai/ha): 30
Post-emerge Herbicidal Activity IPOHE (phytotoxicity rating) ([19]; 250 g ai/ha): 50
Post-emerge Herbicidal Activity ECHCG (phytotoxicity rating) ([20]; 63 g ai/ha): 0
Post-emerge Herbicidal Activity ECHCG (phytotoxicity rating) ([20]; 250 g ai/ha): 0
Post-emerge Herbicidal Activity DIGSA (phytotoxicity rating) ([21]; 63 g ai/ha): 0
Post-emerge Herbicidal Activity DIGSA (phytotoxicity rating) ([21]; 250 g ai/ha): 0
Post-emerge Herbicidal Activity ABUTH (phytotoxicity rating) ([22]; 63 g ai/ha): 40
Post-emerge Herbicidal Activity ABUTH (phytotoxicity rating) ([22]; 250 g ai/ha): 60
Post-emerge Herbicidal Activity CASOB (phytotoxicity rating) ([23]; 63 g ai/ha): 0
Post-emerge Herbicidal Activity CASOB (phytotoxicity rating) ([23]; 250 g ai/ha): 30
